Reference: a melting point compilation (Tetko et al.; mined from patent text by program, amines drawn as free bases though some values may be those of a salt)

Compound	melting point [°C]
O=Cc1ccc2c(c1)Cc1cc(Br)ccc1-2	161 to 170
O=C(Nc1nc(-c2ccccc2)c(-c2nc3ccccc3c(=O)n2-c2ccc(Cl)cc2)s1)c1ccccc1	> 275
CC(C)(C)OC(=O)Cn1c(C(=O)O)cc2cc(N)ccc21	128
CCOC(=O)N1CCC(Nc2nc3cccnc3n2Cc2ccc(CO)o2)CC1	148
CCc1nc2c(C)nn(C)c2c2nc(C)cn12	182 to 183
C[C@H](Oc1ccc(-c2csc(S(N)(=O)=O)c2)cc1)[C@H](O)CCc1cccnc1	151 to 152
CS(=O)c1ccc(CI)cc1 (stereo not drawn)	80 to 81
C1=Cc2cc(/C=C/c3ccc4c(c3)C=C4)ccc21	132
C=CC[C@H]1Cc2c(OCOC)cccc2C(O)O1 (stereo partly drawn)	72 to 74
Cc1cc(Cl)cc(COc2cccc(OCc3ccc4cc(F)ccc4n3)c2)c1OCC(=O)O	140 to 141
COC1=CC2=CCC3C4CC(C)C(=O)C4(C)CCC3C2(C)CC1 (stereo not drawn)	149 to 167
Cc1cc(C)cc(NC(=O)NC2N=C(c3ccccc3)c3ccccc3N(C)C2=O)c1 (stereo not drawn)	267 to 269
Cc1ccc(/C=C(/C(=O)OC(C)(C)C)C(=O)c2ccccc2O)cc1	86 to 89
CCCCOc1cc(CCC(=O)O)n(Cc2ccc(C(F)(F)F)cc2)n1	116 to 118
COC(=O)C1C(C)OC(=O)C(C)C1NC(=O)OCc1ccccc1 (stereo not drawn)	144 to 146
CCCn1c(COCC)nc2c(N)nc3ccc(OCCCN4CCCC4=O)cc3c21	188 to 190
C=S1c2ccccc2N(CCN2CCOCC2)C(=O)C1c1ccc(Cl)cc1 (stereo not drawn)	169 to 173
CCCCCCCCCCCCCCCC(N=C=O)S(=O)(=O)c1ccc2ccccc2c1 (stereo not drawn)	152 to 155
O=C(O)C=CC1CC1(c1cccc(C(F)(F)F)c1)c1cccc(C(F)(F)F)c1 (stereo not drawn)	147 to 148
COc1ccc(OCC(O)CNC(C)(C)C)c(C)c1C (stereo not drawn)	73 to 75
Brc1cnc(SCc2cccs2)nc1	87
CCN1CCc2ccc(C(=O)CCC(=O)N3CCC(c4ccc(Cl)cc4)CC3)cc2C1	115 to 116
COc1ccc(C=C(Br)Br)cc1OC(C)C	67 to 69
CN1CCCC(CC(=O)c2ccc(Cl)c(Cl)c2)C1 (stereo not drawn)	69 to 71
COc1cc(C=O)cc(Cl)c1Cl	97 to 98.5

Compound	melting point [°C]
Cc1cc(-c2nc3cccnn3c2-c2ccnc(NC(=O)c3ccsc3)c2)ccc1F	217 to 218
COc1cc(N2CCC(N3CCOCC3)CC2)ccc1Nc1ncc2ccc(-c3ccccc3S(C)(=O)=O)n2n1	111 to 112
O=S1(=O)NCN(C2CCCCC2)c2cc(Cl)c(Cl)cc21	207 to 209
CCOC(=O)C1=C(C)NC(C)=C(C(=O)OC(C)C)C1c1csc2ccncc12 (stereo not drawn)	212 to 215
NC(=O)c1c(Cl)c(-c2cncs2)n2c1CCCC2	227
CCOC(=O)C(=Cc1cccc([N+](=O)[O-])c1)C(=O)CCl	108 to 111
Cn1c(C(F)(F)F)cc(=O)n(-c2c(F)cc(Br)c(O)c2N)c1=O	98 to 100
Cc1ccc(NC(=O)Nc2cccc(Oc3ccc4nc(COc5ccc(CC6SC(=O)NC6=O)cc5)n(C)c4c3)c2)cc1 (stereo not drawn)	173 to 175
Nc1c(OCCCl)cccc1[N+](=O)[O-]	71 to 73
COc1cccc2c(OCc3ccc(C(C)C)cc3)ccc(C=NNC(=O)c3ccc(O)c(Cl)c3)c12	> 250
CCCCCCCCCCCCSCCCN=C=O	91 to 92
O=C(Nc1ccccc1)c1cccc(Nc2ccccc2)c1	134 to 135
C=CCOc1ccc(C(=O)N[C@@H](C)c2cccc3ccccc23)cc1	141 to 143
CON=C(C(N)=NO)c1ccccc1COc1ccccc1C	110 to 112
CCOC(=O)c1cnn(-c2nc(-c3cccc(C(F)(F)F)c3)cs2)c1C	138
COc1ccc(S(=O)C(C)(CC=C(C)C)C(=O)NO)cc1 (stereo not drawn)	108
COc1cc2c(cc1Nc1ncc(Cl)c(Nc3ccc(OC)c4c3C(=O)N(C)C4)n1)CCN(CC(=O)N(C)C)CC2	202 to 203
COc1ccc(-c2ccc(C#N)cc2)cc1C(C)=O	102
c1ccc(N2c3ccccc3Sc3ccccc32)cc1	93 to 94
CCOc1ncnc(OCC)c1NC(N)=S	212
COc1cc2c(cc1Nc1ncc(C(F)(F)F)c(Nc3ccc(N4CCOCC4)cc3OC)n1)N(C)C(=O)OCC2	221 to 223
S=C(Nc1ccccc1)N(Cc1ccc(Br)cc1)C1CCCC1	129 to 131
CCN(Cc1cccs1)C(=O)C12CC3CC(CC(C3)C1)C2	103 to 105
CNC(=NCCSCc1[nH]cnc1C)NS(=O)(=O)c1ccccc1	156 to 158
O=[N+]([O-])c1ccc(OC23CC4CC(CC(C4)C2)C3)c2ccccc12	126 to 128

Compound	melting point [°C]
CC(=O)Nc1ccc(OC(=O)C=CC=C(C)C=CC=C(C)C=CC2=C(C)CCCC2(C)C)cc1	219 to 222
CCOC(=O)C(=O)CCc1ccccc1	126 to 127
Cc1ccc(N=C=C2C=CC=CN2)c(C)c1[N+](=O)[O-]	114 to 116
COC(=O)Cn1nnnc1CCC(NC(=O)CCC(C)(NC(=O)OCc1ccccc1)C(=O)O)C(=O)OC (stereo not drawn)	64 to 65
CCN(C1CCN(Cc2ccccc2)C1)S(=O)(=O)c1ccc(Nc2nccc(Nc3ccc(F)cc3)n2)cc1 (stereo not drawn)	125 to 127
CCC(=NOC)C(=NO)C(=O)NC	168 to 170
CCOC(=O)C1CSC(c2nsc3ccc(-n4c(=O)cc(C(F)(F)F)n(C)c4=O)cc23)N1 (stereo not drawn)	97 to 98
CCCCOC(=O)C=Cc1ccc(C=CC(=O)OCCCC)c2nsnc12	90 to 94
COc1ccc(C=Cc2ncn(CC(O)(Cn3cncn3)c3ccc(F)cc3F)n2)cc1 (stereo not drawn)	150 to 152
CCC(=O)Nc1cnc2ccccc2c1Cl	151 to 152
Clc1ccc(-c2nc[nH]c2-c2cccs2)cc1	244 to 245
COc1ccc(C(=O)Nc2c(C)c(C)c3c(c2C)C(c2ccccc2)C(C)(C)O3)cc1 (stereo not drawn)	190 to 192
C#CCC(C)C(=O)N1c2ccccc2C(=O)Nc2cccnc21 (stereo not drawn)	202 to 204
CCCS(=O)c1cc(OCCCS(=O)Cc2ccccc2)ccc1C (stereo not drawn)	92 to 94
COC(=O)C1=CCCN(C2CCc3ccc(OC)cc3C2)C1 (stereo not drawn)	65 to 66
O=[N+]([O-])c1cccnc1NCc1ccc(F)cc1	76
CCS(=O)(=O)Nc1ccc(F)c(N)c1	106 to 108
CCCN(CCc1c[nH]c2ccc(F)cc12)C1COc2ccc3ncccc3c2C1 (stereo not drawn)	67
CC(=O)Nc1nc2c(Oc3cc(-c4ccc(C(F)(F)F)cc4)nc(N4CCN(C(=O)OC(C)(C)C)CC4)n3)cccc2s1	211
CCOC(=O)c1cc2cc(OCCOC)cc(N)c2[nH]1	162 to 163
CCC(Oc1ccc(C(C)(C)CC)cc1C(C)(C)CC)C(=O)Nc1ccc(Cl)c(NC(=O)CC(=O)C(C)(C)Sc2ccccc2)c1 (stereo not drawn)	73 to 75
CSc1nc(Cl)c(C#N)c(Cl)n1	107
N#Cc1cnc2sc(-c3ccc(C=O)cc3)cc2c1Nc1ccc2[nH]ccc2c1	> 260
